# Measurements taken from ChEMBL document CHEMBL6127119 (J Med Chem, 2024).
# Assays:
# Type in all cases: functional
# Details in all cases: time 16-24 hrs
# [1] = system: Staphylococcus aureus; assay: Antibacterial activity against methicillin-susceptible Staphylococcus aureus incubated for 16 to 24 hrs by CLSI based broth microdilution method
# [2] = system: Staphylococcus aureus; assay: Antibacterial activity against vancomycin-intermediate Staphylococcus aureus incubated for 16 to 24 hrs by CLSI based broth microdilution method
# [3] = system: Enterococcus faecium; assay: Antibacterial activity against vancomycin-resistant Enterococcus faecium harboring VanA phenotype incubated for 16 to 24 hrs by CLSI based broth microdilution method
# [4] = system: Enterococcus faecium; assay: Antibacterial activity against vancomycin-resistant Enterococcus faecium harboring VanM phenotype incubated for 16 to 24 hrs by CLSI based broth microdilution method
# [5] = system: Enterococcus faecium; assay: Antibacterial activity against vancomycin-resistant Enterococcus faecium harboring VanB phenotype incubated for 16 to 24 hrs by CLSI based broth microdilution method
# [6] = system: Escherichia coli; assay: Antibacterial activity against Escherichia coli AB1157 incubated for 16 to 24 hrs by CLSI based broth microdilution method
# [7] = system: Acinetobacter baumannii; assay: Antibacterial activity against Carbapenem-resistant Acinetobacter baumannii clinical isolate incubated for 16 to 24 hrs by CLSI based broth microdilution method
# [8] = system: Klebsiella pneumoniae; assay: Antibacterial activity against Klebsiella pneumoniae clinical isolate incubated for 16 to 24 hrs by CLSI based broth microdilution method
# [9] = system: Pseudomonas aeruginosa; assay: Antibacterial activity against Pseudomonas aeruginosa PAO1 incubated for 16 to 24 hrs by CLSI based broth microdilution method
Structure (SMILES),MIC [1] [µg/mL],MIC [2] [µg/mL],MIC [3] [µg/mL],MIC [4] [µg/mL],MIC [5] [µg/mL],MIC [6] [µg/mL],MIC [7] [µg/mL],MIC [8] [µg/mL],MIC [9] [µg/mL]
CC(C)C[C@@H](N)C(=O)N[C@H]1C(=O)N[C@@H](CC(N)=O)C(=O)N[C@H]2C(=O)N[C@H]3C(=O)N[C@H](C(=O)N[C@H](C(=O)NCCc4ccc(-c5ccc(CN)cc5)cc4)c4cc(O)cc(O)c4-c4cc3ccc4O)[C@H](O)c3ccc(c(Cl)c3)Oc3cc2cc(c3O[C@@H]2O[C@H](CO)[C@@H](O)[C@H](O)[C@H]2O[C@H]2C[C@](C)(N)[C@H](O)[C@H](C)O2)Oc2ccc(cc2Cl)[C@H]1O,0.25,1,4,8,8,8,128,> 128,> 128
CC(C)C[C@@H](N)C(=O)N[C@H]1C(=O)N[C@@H](CC(N)=O)C(=O)N[C@H]2C(=O)N[C@H]3C(=O)N[C@H](C(=O)N[C@H](C(=O)NCc4ccc(-c5ccc(CCN)cc5)cc4)c4cc(O)cc(O)c4-c4cc3ccc4O)[C@H](O)c3ccc(c(Cl)c3)Oc3cc2cc(c3O[C@@H]2O[C@H](CO)[C@@H](O)[C@H](O)[C@H]2O[C@H]2C[C@](C)(N)[C@H](O)[C@H](C)O2)Oc2ccc(cc2Cl)[C@H]1O,0.25,1,4,16,8,16,> 128,> 128,> 128
CC(C)C[C@@H](N)C(=O)N[C@H]1C(=O)N[C@@H](CC(N)=O)C(=O)N[C@H]2C(=O)N[C@H]3C(=O)N[C@H](C(=O)N[C@H](C(=O)NCCCCN)c4cc(O)cc(O)c4-c4cc3ccc4O)[C@H](O)c3ccc(c(Cl)c3)Oc3cc2cc(c3O[C@@H]2O[C@H](CO)[C@@H](O)[C@H](O)[C@H]2O[C@H]2C[C@](C)(N)[C@H](O)[C@H](C)O2)Oc2ccc(cc2Cl)[C@H]1O,0.5,8,64,128,128,32,> 128,> 128,> 128
CC(=O)NCCCCNC(=O)[C@H]1NC(=O)[C@H]2NC(=O)[C@H](NC(=O)[C@@H]3NC(=O)[C@H](CC(N)=O)NC(=O)[C@H](NC(=O)[C@H](N)CC(C)C)[C@H](O)c4ccc(c(Cl)c4)Oc4cc3cc(c4O[C@@H]3O[C@H](CO)[C@@H](O)[C@H](O)[C@H]3O[C@H]3C[C@](C)(N)[C@H](O)[C@H](C)O3)Oc3ccc(cc3Cl)[C@H]2O)c2ccc(O)c(c2)-c2c(O)cc(O)cc21,4,8,> 128,128,> 128,128,128,> 128,128
CN[C@H](CC(C)C)C(=O)N[C@H]1C(=O)N[C@@H](CC(N)=O)C(=O)N[C@H]2C(=O)N[C@H]3C(=O)N[C@H](C(=O)N[C@H](C(=O)O)c4cc(O)c(CNCCCCCCCCNC(=N)N)c(O)c4-c4cc3ccc4O)[C@H](O)c3ccc(c(Cl)c3)Oc3cc2cc(c3O[C@@H]2O[C@H](CO)[C@@H](O)[C@H](O)[C@H]2O[C@H]2C[C@](C)(N)[C@H](O)[C@H](C)O2)Oc2ccc(cc2Cl)[C@H]1O,1,2,64,32,128,32,128,> 128,128
CC(C)C[C@@H](N)C(=O)N[C@H]1C(=O)N[C@@H](CC(N)=O)C(=O)N[C@H]2C(=O)N[C@H]3C(=O)N[C@H](C(=O)N[C@H](C(=O)NCCN)c4cc(O)cc(O)c4-c4cc3ccc4O)[C@H](O)c3ccc(c(Cl)c3)Oc3cc2cc(c3O[C@@H]2O[C@H](CO)[C@@H](O)[C@H](O)[C@H]2O[C@H]2C[C@](C)(N)[C@H](O)[C@H](C)O2)Oc2ccc(cc2Cl)[C@H]1O,2,4,128,128,128,32,128,> 128,> 128
CC(C)C[C@@H](N)C(=O)N[C@H]1C(=O)N[C@@H](CC(N)=O)C(=O)N[C@H]2C(=O)N[C@H]3C(=O)N[C@H](C(=O)N[C@H](C(=O)N[C@H](CCCNC(=N)N)C(N)=O)c4cc(O)cc(O)c4-c4cc3ccc4O)[C@H](O)c3ccc(c(Cl)c3)Oc3cc2cc(c3O[C@@H]2O[C@H](CO)[C@@H](O)[C@H](O)[C@H]2O[C@H]2C[C@](C)(N)[C@H](O)[C@H](C)O2)Oc2ccc(cc2Cl)[C@H]1O,0.5,16,32,64,32,16,64,> 128,128
CC(C)C[C@@H](N)C(=O)N[C@H]1C(=O)N[C@@H](CC(N)=O)C(=O)N[C@H]2C(=O)N[C@H]3C(=O)N[C@H](C(=O)N[C@H](C(=O)NCCCCCCCCN)c4cc(O)cc(O)c4-c4cc3ccc4O)[C@H](O)c3ccc(c(Cl)c3)Oc3cc2cc(c3O[C@@H]2O[C@H](CO)[C@@H](O)[C@H](O)[C@H]2O[C@H]2C[C@](C)(N)[C@H](O)[C@H](C)O2)Oc2ccc(cc2Cl)[C@H]1O,1,4,32,32,32,32,> 128,> 128,128
CC(C)C[C@@H](N)C(=O)N[C@H]1C(=O)N[C@@H](CC(N)=O)C(=O)N[C@H]2C(=O)N[C@H]3C(=O)N[C@H](C(=O)N[C@H](C(=O)NCCCCCCCCNC(=N)N)c4cc(O)cc(O)c4-c4cc3ccc4O)[C@H](O)c3ccc(c(Cl)c3)Oc3cc2cc(c3O[C@@H]2O[C@H](CO)[C@@H](O)[C@H](O)[C@H]2O[C@H]2C[C@](C)(N)[C@H](O)[C@H](C)O2)Oc2ccc(cc2Cl)[C@H]1O,0.5,2,16,32,8,8,64,> 128,128
CC(C)C[C@@H](N)C(=O)N[C@H]1C(=O)N[C@@H](CC(N)=O)C(=O)N[C@H]2C(=O)N[C@H]3C(=O)N[C@H](C(=O)N[C@H](C(=O)NCc4ccc(-c5ccc(CN)cc5)cc4)c4cc(O)cc(O)c4-c4cc3ccc4O)[C@H](O)c3ccc(c(Cl)c3)Oc3cc2cc(c3O[C@@H]2O[C@H](CO)[C@@H](O)[C@H](O)[C@H]2O[C@H]2C[C@](C)(N)[C@H](O)[C@H](C)O2)Oc2ccc(cc2Cl)[C@H]1O,≤ 0.063,1,8,8,8,16,128,> 128,> 128
CC(C)C[C@@H](N)C(=O)N[C@H]1C(=O)N[C@@H](CC(N)=O)C(=O)N[C@H]2C(=O)N[C@H]3C(=O)N[C@H](C(=O)N[C@H](C(=O)O)c4cc(O)c(CNCCCCCCCCNC(=N)N)c(O)c4-c4cc3ccc4O)[C@H](O)c3ccc(c(Cl)c3)Oc3cc2cc(c3O[C@@H]2O[C@H](CO)[C@@H](O)[C@H](O)[C@H]2O[C@H]2C[C@](C)(N)[C@H](O)[C@H](C)O2)Oc2ccc(cc2Cl)[C@H]1O,1,4,64,32,128,32,128,> 128,128
CC(C)C[C@@H](N)C(=O)N[C@H]1C(=O)N[C@@H](CC(N)=O)C(=O)N[C@H]2C(=O)N[C@H]3C(=O)N[C@H](C(=O)N[C@H](C(=O)NCCCCCCN)c4cc(O)cc(O)c4-c4cc3ccc4O)[C@H](O)c3ccc(c(Cl)c3)Oc3cc2cc(c3O[C@@H]2O[C@H](CO)[C@@H](O)[C@H](O)[C@H]2O[C@H]2C[C@](C)(N)[C@H](O)[C@H](C)O2)Oc2ccc(cc2Cl)[C@H]1O,2,8,64,64,64,32,> 128,> 128,128
CC(C)C[C@@H](N)C(=O)N[C@H]1C(=O)N[C@@H](CC(N)=O)C(=O)N[C@H]2C(=O)N[C@H]3C(=O)N[C@H](C(=O)N[C@H](C(=O)NCCOCCOCCN)c4cc(O)cc(O)c4-c4cc3ccc4O)[C@H](O)c3ccc(c(Cl)c3)Oc3cc2cc(c3O[C@@H]2O[C@H](CO)[C@@H](O)[C@H](O)[C@H]2O[C@H]2C[C@](C)(N)[C@H](O)[C@H](C)O2)Oc2ccc(cc2Cl)[C@H]1O,0.5,4,64,64,64,64,> 128,> 128,> 128
CC(C)C[C@@H](N)C(=O)N[C@H]1C(=O)N[C@@H](CC(N)=O)C(=O)N[C@H]2C(=O)N[C@H]3C(=O)N[C@H](C(=O)N[C@H](C(=O)NCCCCNC(=N)N)c4cc(O)cc(O)c4-c4cc3ccc4O)[C@H](O)c3ccc(c(Cl)c3)Oc3cc2cc(c3O[C@@H]2O[C@H](CO)[C@@H](O)[C@H](O)[C@H]2O[C@H]2C[C@](C)(N)[C@H](O)[C@H](C)O2)Oc2ccc(cc2Cl)[C@H]1O,1,2,32,64,32,8,128,> 128,128
